According to paper PMC11995503 (Molecular Cancer, 2025):

Experiments:
KDR/VEGFR2 = experiment: KDR inhibition; format: biochemical
[1] = life-threatening side effects; cited from earlier work
BP-CML = BP-CML cohort, cited from earlier work

Which “KDR inhibition potency relative to KF1601” value (KDR/VEGFR2) does the source give for `Cc1ccc(C(=O)Nc2ccc(CN3CCN(C)CC3)c(C(F)(F)F)c2)cc1C#Cc1cnc2cccnn12` [Ponatinib] here?
Its value is “tenfold greater”.

And the arterial obstruction [1]?
Its arterial obstruction is 33%.

What about the heart failure [1] of the same molecule?
The heart failure was 9%.

What about the thromboembolism [1] of the same molecule?
The thromboembolism was 6%.

And the “patients achieving a major cytological response” value (BP-CML; within six months)?
Its value is 23%.

And the median overall survival (BP-CML)?
Its median overall survival is “seven”.
